Data reported in patent publication US20090048346A1, “THERAPEUTIC FORMULATIONS” (Myriad Genetics, Incorporated, priority 2004, published 2009).

Details: 10 mg/mL in Cremophor:EtOH (1:1) diluted 1:9 with D5W, room temperature (approximately 25° C.), 38 days
Method: 10 ml of this solution was diluted 1:9 by the addition of 90 ml of D5W, and the resulting formulation was mixed by inversion until the solution appeared uniformly clear. The resulting mixture—an injectable formulation—was incubated at room temperature (approximately 25° C.) for 38 days.

O=C(Nc1cc(C(F)(F)F)ccc1Oc1ccc(Cl)c2ccccc12)c1cc(Cl)ccc1O [5-Chloro-N-[2-(4-chloro-naphtalen-1-yloxy)-5-trifluoromethyl-phenyl] -2-hydroxy-benzamide]
Stability of compound concentration in the injectable formulation: stable over the entire period
